Measurements reported in patent publication US20180000085A1, “USE OF PICOLINAMIDE COMPOUNDS WITH FUNGICIDAL ACTIVITY” (DOW AGROSCIENCES LLC, priority 2014, published 2018).

Experiments:
[1] = system: Zymoseptoria tritici; test: Leaf blotch of wheat (SEPTTR) disease control on wheat seedlings; format: in vivo; set-up: key to SEPTTR 1DP, HV activity at 100 ppm (% control rating) / SEPTTR 3DC, HV activity at 100 ppm (% control rating) / SEPTTR disease control, 1DP / SEPTTR disease control, 3DC / SEPTTR 1DP disease control rating, HV activity / SEPTTR 3DC disease control rating, HV activity / SEPTTR 3DC, LV activity at 125.1 g/H (% Control rating) / SEPTTR 1DP, LV activity at 125.1 g/H (% Control rating) / SEPTTR 1DP disease control rating, LV activity at 125.1 g/H / SEPTTR 3DC disease control rating, LV activity at 125.1 g/H / SEPTTR 3DC disease control rating, HV activity at 100 ppm / SEPTTR 1DP disease control rating, HV activity at 100 ppm / HV activity at 100 ppm SEPTTR 3DC (disease control rating) / HV activity at 100 ppm SEPTTR 1DP (disease control rating) / LV activity at 125.1 g/H SEPTTR 1DP (disease control rating) / LV activity at 125.1 g/H SEPTTR 3DC (disease control rating): A: > 80; B: ≤ 80; C: Not Tested; D: No Activity Observed in the Reported Assay; settings: low volume application, 125.1 g/H, wheat leaf blotch; for LV activity at 125.1 g/H SEPTTR 1DP (disease control rating): 1 Day Protectant; for LV activity at 125.1 g/H SEPTTR 3DC (disease control rating): 3 Day Curative
[2] = system: Puccinia triticina; test: Wheat brown rust (PUCCRT) disease control on wheat seedlings; format: in vivo; set-up: key to PUCCRT 3DC, HV activity at 100 ppm (% control rating) / PUCCRT disease control, 3DC / PUCCRT 1DP disease control rating, HV activity / PUCCRT 3DC disease control rating, HV activity / PUCCRT 3DC, LV activity at 125.1 g/H (% Control rating) / PUCCRT 1DP, LV activity at 125.1 g/H (% Control rating) / PUCCRT 3DC disease control rating, LV activity at 125.1 g/H / PUCCRT 1DP disease control rating, LV activity at 125.1 g/H / PUCCRT 3DC disease control rating, HV activity at 100 ppm / PUCCRT 1DP disease control rating, HV activity at 100 ppm / HV activity at 100 ppm PUCCRT 3DC (disease control rating) / LV activity at 125.1 g/H PUCCRT 1DP (disease control rating) / LV activity at 125.1 g/H PUCCRT 3DC (disease control rating): A: > 80; B: ≤ 80; C: Not Tested; D: No Activity Observed in the Reported Assay; settings: low volume application, 125.1 g/H, wheat brown rust; for LV activity at 125.1 g/H PUCCRT 1DP (disease control rating): 1 Day Protectant; for LV activity at 125.1 g/H PUCCRT 3DC (disease control rating): 3 Day Curative

Compound | LV activity at 125.1 g/H SEPTTR 1DP (disease control rating) [1] | LV activity at 125.1 g/H SEPTTR 3DC (disease control rating) [1] | LV activity at 125.1 g/H PUCCRT 1DP (disease control rating) [2] | LV activity at 125.1 g/H PUCCRT 3DC (disease control rating) [2]
COc1ccnc(C(=O)N[C@@H](C)C(=O)O[C@@H](C)[C@H](OCC2CC2)C(C)(C)C)c1OC(C)=O [Cmpd 1071] | B (≤ 80) | B (≤ 80) | A (> 80) | A (> 80)
C=CC[C@@H](OCC(=C)C)[C@H](C)OC(=O)[C@H](C)NC(=O)c1nccc(OC)c1OC(C)=O [Cmpd 1074] | D | D | D | B (≤ 80)
C=CC[C@@H](Oc1ccc(F)cc1F)[C@H](C)OC(=O)[C@H](C)NC(=O)c1nccc(OC)c1OCOC(C)=O [Cmpd 1075] | D | B (≤ 80) | A (> 80) | B (≤ 80)
C=CC[C@@H](OCC1CC1)[C@H](C)OC(=O)[C@H](C)NC(=O)c1nccc(OC)c1OCOC(C)=O [Cmpd 1076] | D | D | B (≤ 80) | B (≤ 80)
C=CC[C@@H](Oc1ccc(C(F)(F)F)cc1)[C@H](C)OC(=O)[C@H](C)NC(=O)c1nccc(OC)c1OCOC(C)=O [Cmpd 1077] | B (≤ 80) | D | A (> 80) | B (≤ 80)
C=CC[C@@H](Oc1cc(F)cc(Cl)c1)[C@H](C)OC(=O)[C@H](C)NC(=O)c1nccc(OC)c1OCOC(C)=O [Cmpd 1078] | B (≤ 80) | B (≤ 80) | A (> 80) | A (> 80)
C=CC[C@@H](Oc1cccc(Cl)c1)[C@H](C)OC(=O)[C@H](C)NC(=O)c1nccc(OC)c1OC(C)=O [Cmpd 1079] | B (≤ 80) | B (≤ 80) | A (> 80) | A (> 80)
C=CC[C@@H](Oc1cc(F)cc(Cl)c1)[C@H](C)OC(=O)[C@H](C)NC(=O)c1nccc(OC)c1OC(C)=O [Cmpd 1080] | B (≤ 80) | B (≤ 80) | A (> 80) | B (≤ 80)
C=CC[C@@H](Oc1ccc(F)cc1F)[C@H](C)OC(=O)[C@H](C)NC(=O)c1nccc(OC)c1OC(C)=O [Cmpd 1081] | D | D | A (> 80) | B (≤ 80)
C=CC[C@@H](OCC(=C)C)[C@H](C)OC(=O)[C@H](C)NC(=O)c1nccc(OC)c1OCOC(C)=O [Cmpd 1082] | D | D | B (≤ 80) | A (> 80)
C=CC[C@@H](Oc1cccc(Cl)c1)[C@H](C)OC(=O)[C@H](C)NC(=O)c1nccc(OC)c1OCOC(C)=O [Cmpd 1083] | B (≤ 80) | A (> 80) | A (> 80) | A (> 80)
C=CC[C@@H](Oc1ccc(C(F)(F)F)cc1)[C@H](C)OC(=O)[C@H](C)NC(=O)c1nccc(OC)c1OC(C)=O [Cmpd 1084] | B (≤ 80) | B (≤ 80) | B (≤ 80) | D
C=CC[C@@H](OCC1CC1)[C@H](C)OC(=O)[C@H](C)NC(=O)c1nccc(OC)c1OC(C)=O [Cmpd 1085] | D | D | D | B (≤ 80)
CC(=O)OCOc1c(Br)ccnc1C(=O)N[C@@H](C)C(=O)O[C@@H](C)[C@H](Oc1ccccc1)C(C)C [Cmpd 1086] | D | D | B (≤ 80) | D
COc1ccnc(C(=O)NC(C)C(=O)OC(C(C)C)C(Oc2ccccc2)C(C)C)c1OCOC(C)=O (stereo not shown) [Cmpd 1088] | D | D | B (≤ 80) | D
COCC(OC(=O)C(C)NC(=O)c1nccc(OC)c1OCOC(C)=O)C(Oc1ccccc1)C(C)C (stereo not shown) [Cmpd 1090] | D | D | D | B (≤ 80)
C=CC(OC(=O)C(C)NC(=O)c1nccc(OC)c1OCOC(C)=O)C(Oc1ccccc1)C(C)C (stereo not shown) [Cmpd 1092] | D | D | B (≤ 80) | B (≤ 80)
CCCC(OC(=O)C(C)NC(=O)c1nccc(OC)c1OCOC(C)=O)C(Oc1ccccc1)C(C)C (stereo not shown) [Cmpd 1093] | D | D | D | D
COc1ccnc(C(=O)NC(C)C(=O)OC(C(C)C)C(Oc2ccccc2)C(C)C)c1OCOC(C)=O (stereo not shown) [Cmpd 1094] | D | D | D | D
COCC(OC(=O)C(C)NC(=O)c1nccc(OC)c1OCOC(C)=O)C(Oc1ccccc1)C(C)C (stereo not shown) [Cmpd 1095] | D | D | B (≤ 80) | B (≤ 80)
CCCC(OC(=O)C(C)NC(=O)c1nccc(OC)c1OCOC(C)=O)C(Oc1ccccc1)C(C)C (stereo not shown) [Cmpd 1096] | D | B (≤ 80) | D | D
CCOc1ccnc(C(=O)NC(C)C(=O)OC(C)C(CC(C)C)Oc2ccc(C)cc2Cl)c1OC(C)=O (stereo not shown) [Cmpd 1098] | D | D | D | B (≤ 80)
